For one substance, Kd results are on record in article PMC6706418, “Systemically Administered Plant Recombinant Holo-Intrinsic Factor Targets the Liver and is not Affected by Endogenous B12 levels” (Scientific Reports, 2019).

This experiment deals with T1, human gastric Intrinsic factor (IF; hrIF) (Homo sapiens, UniProt P27352).
T1 construct: gene CBLIF; recombinant apo-IF expressed in Arabidopsis thaliana (Xeragenx LLC); secreted glycoprotein ~50 kDa with plant glycosylation
The experiment in a line: radiometric chase assay with […]-B12. Type of experiment: binding. Particulars: competition against 57Co-B12; B12-desferrioxamine conjugate chelated to cold 91Zr (pH 7-7.5).

T1 sequence (P27352 19-417): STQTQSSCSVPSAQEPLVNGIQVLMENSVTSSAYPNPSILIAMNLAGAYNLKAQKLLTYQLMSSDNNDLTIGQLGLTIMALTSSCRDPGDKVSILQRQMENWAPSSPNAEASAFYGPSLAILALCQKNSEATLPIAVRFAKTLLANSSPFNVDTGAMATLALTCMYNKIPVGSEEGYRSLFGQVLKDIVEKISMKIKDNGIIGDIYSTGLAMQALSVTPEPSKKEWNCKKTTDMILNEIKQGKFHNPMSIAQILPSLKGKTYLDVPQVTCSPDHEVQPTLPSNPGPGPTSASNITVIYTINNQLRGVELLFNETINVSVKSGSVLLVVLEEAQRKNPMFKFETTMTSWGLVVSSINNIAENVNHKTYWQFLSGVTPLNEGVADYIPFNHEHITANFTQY

The substance [^91Zr]-B12 displayed a Kd of 1.57 nM.

What is called Kd is the constant that tells how readily two partners part at equilibrium. A low value points to a tighter complex.
